Source: ChEMBL document CHEMBL3507680, “University of Dundee, Gates Library screen for HepG2 cell viability”

Test: Human HepG2 cell viability assay in 384 well format
Type: toxicity, cell-based
Parameters: dose 125 nL, time 70.5 hour; concentration not given beside the values
Details: HepG2 cells, read-out: Inhibition

| SMILES | cytotoxicity at 70.5 h |
| --- | --- |
| COCCN(C(=O)c1ccc(OC)cc1)c1ccc(C#N)cc1 | 10.5% |
| COc1ccccc1CC(NC(=O)N1CCOCC1)C(C)C (stereo not drawn) | 17.3% |
| CC(=O)N1CCCN(Cc2csc(C)n2)c2ccccc21 | -2.52% |
| CNC(=O)c1coc(-c2csc(C)n2)c1 | -6.74% |
| COc1cccc(/C=C/CCN2CCN(S(C)(=O)=O)CC2)c1 | -3.47% |
| COc1cc(NC(=O)N(C)CC2CC2)ncn1 | -7.89% |
| Cc1nc(C(C)(C)NCc2ncc(C(C)C)o2)sc1C | -5.11% |
| CC(=O)N1CCCN(Cc2ccon2)c2ccccc21 | 18.6% |
| COCCN(CCOC)C(=O)c1ccoc1C | -6.19% |
| CCOCCN1CCN(CC(=O)NC2(C#N)CCCC2)CC1CC (stereo not drawn) | 0.4% |
| Cc1ncncc1C(=O)N1CCCN(Cc2ncc(Cl)n2C)CC1 | -1.21% |
| COc1ccccc1NCC(=O)Nc1cnn(Cc2ccccn2)c1 | -3.02% |
| COc1cccc(/C=C/CCN2CCCN(C(C)=O)CC2)c1 | -6.2% |
| CCOc1ccccc1N(C)Cc1nccn1C | 4.63% |
| Cc1ccc2cccc(C(=O)NCCOCC3CC3)c2n1 | -0.418% |
| O=C(NCCc1cccnc1)NCCc1cccs1 | 2.09% |
| CC(C)Cc1noc(CN2CCC(C(=O)NCC3CCCO3)CC2)n1 (stereo not drawn) | 10.6% |
| COCCn1nc(C(=O)N2CCOCC2C)ccc1=O (stereo not drawn) | 16.9% |
| COc1ccncc1NC(=O)C1(c2ccc(F)cc2)CCC1 | -6.62% |
| COC(=O)c1ccc(N2CCN(C(=O)C3CCC3)C(C)C2)cc1 (stereo not drawn) | 17.6% |
| COC(=O)CCNC(=O)c1nnn(-c2ccccc2)c1C(F)(F)F | 0.121% |
| Cc1nnc2n1CCN(CC(=O)NC(C)c1ccc3ccccc3c1)C2 (stereo not drawn) | 17.7% |
| COC(=O)c1ccc(N2CCN(C(=O)CC(F)(F)F)C(C)C2)cc1 (stereo not drawn) | -9.89% |
| Cc1cc(C(=O)NC2(C#N)CCCC2)c(C)n1-c1cccnc1 | -6.05% |

| SMILES | cytotoxicity at 70.5 h |
| --- | --- |
| CCc1nc(CNC2CCN(c3ccc(OC)cc3)CC2)cs1 | -5.26% |
| Cc1c(C(=O)N2CCCOCC2)nnn1-c1cccc2cnccc12 | -0.438% |
| Cc1cc(NC(=O)CNC(C)(C)c2nc(C)c(C)s2)no1 | -7.18% |
| Cn1c(=O)[nH]c2cc(C(=O)OCCCn3ccccc3=O)ccc21 | 33.2% |
| NC(=O)NC(=O)CCN1CCN(CC2CC2)c2ccccc21 | 31.2% |
| NC(=O)NC(=O)CN1CCN(CC2CC2)c2ccccc21 | 8.16% |
| Cc1c(C(=O)N2CC(C)(C)C2(C)C)nnn1-c1cccc2cnccc12 | -2.78% |
| Cc1c(C(=O)N2CC(O)C2)nnn1-c1cccc2cnccc12 | -8.03% |
| COc1ccccc1C(=O)N(Cc1nc(C)cs1)CC1CCCO1 (stereo not drawn) | 22.1% |
| CC(C)Cc1noc(CNc2cccc(-c3nnnn3C)c2)n1 | -11% |
| Cc1csc(CN(CC2CCCO2)C(=O)c2ccc(C)nc2C)n1 (stereo not drawn) | 15.4% |
| CCOCCOC(C)C(=O)NCc1ccc(N2CCCCC2)cc1 (stereo not drawn) | 0.804% |
| Cc1csc(CN(CC2CCCO2)C(=O)c2occc2C)n1 (stereo not drawn) | 22.1% |
| CS(=O)(=O)NCC1CCCCN1Cc1cccc(C#N)c1 (stereo not drawn) | -1.33% |
| CCOc1ccnc(N2CCCN(c3nc(CC)ns3)CC2)n1 | -2.91% |
| CC(C(=O)Nc1ccc(C#N)cc1)N1CCc2ccccc21 (stereo not drawn) | 43.4% |
| c1csc(-c2nc(CN3CCN(c4cnccn4)CC3)co2)c1 | -18.4% |
| CCNC(=O)NC(=O)C(C)Nc1ccccc1OCCOC (stereo not drawn) | -11.3% |
| CN(CC(=O)Nc1nc2c(s1)CCC2)C(=O)c1cccs1 | -12.8% |
| NC(=O)CN(CC(=O)NCc1cc(F)cc(F)c1)C1CCCC1 | -10.9% |
| Cc1ccc(N2CCCN(C(=O)c3cccc4c3ccn4C)CC2)nn1 | -7.32% |
| COC(=O)N1CCCC(NC(=O)NCc2csc(C)n2)C1 (stereo not drawn) | -10.6% |
| CCNc1cc2c(nn1)CCN(C(=O)C1COc3ccccc3O1)C2 (stereo not drawn) | -12.7% |
| CCNc1cc2c(nn1)CCN(C(=O)C1COc3ccccc3C1)C2 (stereo not drawn) | -12.3% |

| SMILES | cytotoxicity at 70.5 h |
| --- | --- |
| COCc1ccc(C(=O)N2CCN(CCS(C)(=O)=O)CC2)cc1 | -10.7% |
| CC(C)CCS(=O)(=O)CC(=O)N1CCCC1c1cnn(C)c1 (stereo not drawn) | -5.18% |
| CN(C)c1cc2c(nn1)CCN(C(=O)C1COc3ccccc3C1)C2 (stereo not drawn) | 3.17% |
| CN(C)c1cc2c(nn1)CCN(C(=O)c1cc3c(s1)CCOC3)C2 | -15.2% |
| Cc1csc(C2CCCN(C(=O)c3cnn4ccc(C)nc34)C2)n1 (stereo not drawn) | -8.34% |
| CC(CNC(=O)c1cc(N2CCNC2=O)ccc1F)c1ccccc1 (stereo not drawn) | -6.76% |
| COCCNc1ccccc1CNC(=O)NCc1cnc(C)s1 | -0.0167% |
| COCCNc1ccccc1CNC(=O)NCc1nc(C)c(C)s1 | -7.21% |
| CCOCCN1CCN(CCC(=O)N2CCCCC2)CC1 | -8.84% |
| COc1cc(CN2CCC(NC(=O)c3cccn3C)C2)cc(OC)c1 (stereo not drawn) | -7.95% |
| CCCNC(=O)Cn1c(C)nn(C(C)(C)C)c1=O | 9.3% |
| CC(C)N(CCNC(=O)N1CCCC(N(C)C)C1)C1CC1 (stereo not drawn) | 13.5% |
| COC1CCN(CCNC(=O)NC(C)c2ccc(F)c(F)c2)CC1 (stereo not drawn) | 23.5% |
| CCCNC1(c2ccc(Cl)cc2)CCOCC1 | 6.67% |
| O=C(CNC(=O)C1CC1)NCc1ccc(Cl)s1 | 1.44% |
| Cc1sc(-c2ccco2)nc1C(=O)N(CC1CCOC1)C1CC1 (stereo not drawn) | -1.94% |
| CCN(CC1CCOC1)C(=O)c1nc(-c2ccco2)sc1C (stereo not drawn) | -2.01% |
| Cc1sc(-c2ccco2)nc1C(=O)NCC1CCOC1 (stereo not drawn) | 1.39% |
| O=C(Nc1ccc(-n2cncn2)nc1)N(CC1CCOC1)C1CC1 (stereo not drawn) | -1.97% |
| Cc1sc(-c2ccco2)nc1C(=O)N(CC(N)=O)C1CCCC1 | -2.05% |
| CN(CCCNC(=O)c1ccccc1OCC(N)=O)CC(F)(F)F | 1.62% |
| Cc1nc(CSCCC(=O)NCCNC(=O)OC(C)(C)C)cs1 | 3.27% |
| Cc1ccc(-c2nc(C(=O)N3CCCCC3CNS(C)(=O)=O)cs2)cc1 (stereo not drawn) | 11% |
| COCCC(=O)N1CCC(Nc2ncc(Cl)cn2)CC1 | 0.73% |

| SMILES | cytotoxicity at 70.5 h |
| --- | --- |
| Cc1ccc(CNC(=O)N2CCN(C(C)c3cccnc3)CC2)cn1 (stereo not drawn) | -3.85% |
| Cn1cc(N2CCCC(Nc3ccc4c(c3)CCCO4)C2=O)cn1 (stereo not drawn) | -0.945% |
| COC1CCN(CCNC(=O)NC(C)c2cccc(Cl)c2)CC1 (stereo not drawn) | -0.888% |
| CC(NC(=O)COc1cccc[n+]1[O-])C1CC1 (stereo not drawn) | -4.57% |
| COCCN(C(=O)c1nc(-c2ccco2)sc1C)C1CC1 | -2.88% |
| Cc1ccc(-n2cnnn2)cc1NCC(=O)Nc1cc(F)ccc1F | -66.2% |
| Cc1ccc(-n2cnnn2)cc1NCC(=O)Nc1ccccc1Cl | -101% |
| CCC(C)NC(=O)c1nnn(-c2cccc3c2CCN(C)C3)c1C (stereo not drawn) | 2.37% |
| COCCCNC(=O)Nc1cccc2c1CCN(S(C)(=O)=O)C2 | 21.4% |
| CC(C)NC(=O)Nc1cccc2c1CCN(S(C)(=O)=O)C2 | -1.67% |
| CS(=O)(=O)N1CCc2c(cccc2NC(=O)NC2CCCC2)C1 | -3.1% |
| CCSc1ccc(C(=O)NCCc2nnc(-c3ccco3)[nH]2)cn1 | -6.64% |
| COc1ccc(COCC(=O)NC2CCc3nc(C)cn3C2)cc1 (stereo not drawn) | -2.95% |
| O=C(Nc1nnc[nH]1)C(c1cccc(F)c1)N1CCOCC1 (stereo not drawn) | -1.33% |
| CC(C)(CC(=O)Nc1cccc(Oc2ccccn2)c1)C(=O)O | -5.32% |
| Cc1cc(NS(=O)(=O)c2cccs2)ccc1-n1cccc1C(=O)O | -1.78% |
| COCCN(Cc1cccnc1)S(=O)(=O)c1cc(C)ccc1F | -5.06% |
| Cn1ccnc1CNC(=O)N(CCCO)C1CCc2ccccc21 (stereo not drawn) | -4.97% |
| Cc1nc(C)n(CC2CCCCN2Cc2nnc(-c3ccco3)o2)n1 (stereo not drawn) | -6.54% |
| COCCN(Cc1cccnc1)S(=O)(=O)c1ccc(F)cc1C | -4.8% |
| COc1ccccc1CN(C)C(=O)CN1CC(n2nc(C)cc2C)C1 | -2.12% |
| Cc1nc(C)n(CC2CCCN(Cc3nnc(C4CC4)o3)C2)n1 (stereo not drawn) | -7.21% |
| Cc1cn2c(n1)CCC(NC(=O)COCCOc1ccccc1)C2 (stereo not drawn) | -8.88% |
| Cc1nc(C)n(CC2CCCN2Cc2nnc(-c3ccco3)o2)n1 (stereo not drawn) | 11.1% |

| SMILES | cytotoxicity at 70.5 h |
| --- | --- |
| COc1cccc(CNc2cc(CO)ccc2Cl)c1 | -8.65% |
| CC(C)Oc1ncc(C(=O)N2CCCC(C(=O)O)C2)cc1Cl (stereo not drawn) | -7.98% |
| CN(Cc1ccc(Cl)s1)C(=O)Cn1nc(-c2ccc(F)cc2)oc1=O | -13.3% |
| CN(Cc1cccc(Cl)c1)C(=O)Cn1nc(-c2ccc(F)cc2)oc1=O | -2.8% |
| Cc1cc(=O)n2ncnc2n1CC(O)COCc1ccccc1Cl (stereo not drawn) | -9.61% |
| CC(C)c1ccc(CS(=O)(=O)CC(=O)NCc2ccccc2F)cc1 | -17.3% |
| O=C(NCC(O)c1ccc(F)c(F)c1)c1ccccc1F (stereo not drawn) | -9.96% |
| Cc1ccccc1C(=O)NCC(O)c1ccc(F)c(F)c1 (stereo not drawn) | -5.82% |
| COc1ncccc1CNC(=O)CN1CCCCCC1=O | -16.5% |
| CC(C)Cc1noc(CN2CCCN(C(=O)c3cccc(Cl)c3)CC2)n1 | 23.3% |
| O=C(CS(=O)(=O)Cc1ccc(F)cc1)NCc1ccccc1F | -8.79% |
| Cc1ccc(C(=O)NCC(O)c2ccc(F)c(F)c2)c(=O)[nH]1 (stereo not drawn) | -10.6% |
| CC(C)Oc1ncc(C(=O)N2CCC(CC(N)=O)CC2)cc1Cl | -8.52% |
| O=C(CS(=O)(=O)Cc1ccccc1)NCc1ccccc1F | 22.1% |
| COC(C)C(=O)Nc1cc(C(=O)N2CCSCC2)ccc1C (stereo not drawn) | 0.013% |
| COCCCNC(=O)Nc1cc(-c2ccccc2C)nn1CCO | -5.71% |
| COC(=O)CCN1CCC(C(=O)c2cc(F)ccc2F)CC1 | -12.5% |
| CN(C)C(=O)Cc1nc(CN2CCCCC2Cn2cncn2)cs1 (stereo not drawn) | 23.2% |
| Cc1ccccc1-c1cc(NC(=O)NC2CC2)n(CCO)n1 | 1.97% |
| O=C(NCCN1C(=O)CCC1=O)c1nc2ccccc2c(=O)[nH]1 | -12.2% |
| CC(NCc1ccc(C(N)=O)cc1)c1ccc(Cl)c(Cl)c1 (stereo not drawn) | -11.9% |
| O=C(Nc1ccc(F)cc1)C(c1ccccc1)N1CCOCC1 (stereo not drawn) | 5.55% |
